Results as given in KR20220022782A, “아모디아퀸 및 아르테수네이트계 약물을 유효성분으로 함유하는 제2형 당뇨병 예방 또는 치료용 약학적 조성물” (priority 2020, dated 2022).

Legend:
[1] = in vitro; details: mouse, c2c12 myoblast cells
[2] = test system: C2C12 myoblast cell line (C2C12 myoblast 세포주); test: in vitro
[3] = test system: C2C12 myotube cell line (C2C12 myotube 세포주); test: Glucose uptake (2-NBDG, Glucose uptake cell-based assay kit) in palmitic acid-induced insulin-resistant C2C12 myotubes (Example 3); parameters: species or system mouse; details: single agent; general statement
[4] = test system: Akt phosphorylation (Akt 인산화); test: Akt phosphorylation (western blotting) in palmitic acid-induced insulin-resistant C2C12 myotubes (Example 2); format: cell-based, mouse; details: single agent; general statement

SMILES | viability at 12.5 µM [1] [%] | cytotoxicity (in words) [2] | viability at 25 µM [1] [%] | promotion of glucose uptake (in words) [3] | improvement of insulin resistance (in words) [4]
C[C@H]1[C@H](OC(=O)CCC(=O)O)O[C@@H]2O[C@@]3(C)CC[C@H]4[C@H](C)CC[C@@H]1[C@@]24OO3 [아르테수네이트, 아르테수네이트(artesunate)] | ~80 | 세포 독성이 없음 |  |  | 
CCN(CC)Cc1cc(Nc2ccnc3cc(Cl)ccc23)ccc1O [아모디아퀸, 아모디아퀸(amodiaquine)] |  | 세포 독성이 없음 | ~80 | 미미한 수준에 불과하다 | 미미한 수준에 불과하다
